Where two headings read alike, the source gives them in different places.
Assay: 14-day oral gavage toxicokinetic study in rats
Format: in vivo
Details: male, rat, plasma, po; for concentration at 0.5 h / concentration at 1 h / concentration at 4 h / concentration at 8 h / concentration at 12 h / concentration at 24 h / concentration at […] / concentration at 2 h: rats; for half-life: read-out: t½ (converted)
Experimental: Plasma was obtained from blood samples collected from rats in a composite sampling scheme, with 3 samples collected per sex, per dose, at each target collection time, as illustrated in Table 21 to Table 25. Samples were collected from the vehicle control group on Day 1 and Day 14 at 3 hour after administration. […] Blood samples were collected in tubes containing K3EDTA as an anticoagulant and placed on ice until processed to plasma via centrifugation. Samples were stored frozen at −80° C. until shipment to the bioanalytical laboratory for analysis.
The following parameters were determined:
Cmax: Maximum observed plasma concentration (ng/mL).
A value of 0 ng/mL was assigned to all values below the lower limit of quantitation (BLQ, <10.0 ng/mL).
AUC(0-inf): Area under the plasma concentration vs. time curve extrapolated from 0 to infinity (ng*h/mL), calculated as AUC(0-t)+AUC(t-inf) where AUC(t-inf) is calculated as last measurable concentration (CLast) divided by ke, where ke is the elimination rate constant determined by linear regression of the last three analytically measured points on the log plasma concentration vs. time curve. The selection criteria of the data points for inclusion in the calculation of ke required that at least three data points representing the terminal phase (after Tmax) were regressed and that R2≧0.850 when rounded.
CL: Clearance (L/h/kg), calculated as the dose divided by AUC(0-t).
Vd: Volume of distribution (L/kg), calculated as dose divided by the product of ke and AUC(0-inf).
Vdss: Steady state volume of distribution (L/kg), calculated as clearance […] mean residence time, where mean residence time is calculated as the area under the first moment curve divided by AUC(0-t).
t½: Elimination half-life (h), calculated as ln(2)/ke, where ke is the elimination rate constant determined by linear regression. Half-life was defined as not determined if regression criteria (specified in AUC(0-inf) above) were not met.
Cmax/Dose: Normalized Cmax, calculated as Cmax divided by total dose.
AUC/Dose: Normalized AUC, calculated as AUC(0-t) divided by total dose.
ii. Statistical Analysis Mean and standard deviation (SD) were calculated in Watson. Values of BLQ were assigned a value of 0 ng/mL for mean calculations. Concentration values and derived TK parameters were reported to three significant figures.

[1] = 5 mg/kg, oral 5 mg/kg, Study Day 1, Male
[2] = 5 mg/kg, oral 5 mg/kg, Study Day 14, Male

`CN1CCN(c2ccc(Nc3ncc4cc5n(c4n3)C3(CCCCC3)CNC5=O)nc2)CC1` [Compound 1, 2′-((5-(4-methylpiperazin-1-yl)pyridin-2-yl)amino)-7′,8′-dihydro-6′H-spiro[cyclohexane-1,9′-pyrazino[1′,2′:1,5]pyrrolo[2,3-d]pyrimidin]-6′-one] gave a concentration at 0.5 h (5 mg/kg, Individual Compound 1 Plasma Concentration, daily oral 5 mg/kg, Day 1, Male, 0.5 h) of 225 ng/mL, a concentration at 1 h (5 mg/kg, Individual Compound 1 Plasma Concentration, daily oral 5 mg/kg, Day 1, Male, 1 h) of 244 ng/mL and a concentration at 4 h (5 mg/kg, Individual Compound 1 Plasma Concentration, daily oral 5 mg/kg, Day 1, Male, 4 h) of 562 ng/mL. The concentration at 8 h (5 mg/kg, Individual Compound 1 Plasma Concentration, daily oral 5 mg/kg, Day 1, Male, 8 h) was 235 ng/mL, the concentration at 12 h (5 mg/kg, Individual Compound 1 Plasma Concentration, daily oral 5 mg/kg, Day 1, Male, 12 h) was 206 ng/mL and the concentration at 24 h (5 mg/kg, Individual Compound 1 Plasma Concentration, daily oral 5 mg/kg, Day 1, Male, 24 h) was 26.5 ng/mL. It also gave a concentration at 0.5 h (5 mg/kg, Individual Compound 1 Plasma Concentration, daily oral 5 mg/kg, Day 14, Male, 0.5 h) of 205 ng/mL, a concentration at 1 h (5 mg/kg, Individual Compound 1 Plasma Concentration, daily oral 5 mg/kg, Day 14, Male, 1 h) of 254 ng/mL and a concentration at 4 h (5 mg/kg, Individual Compound 1 Plasma Concentration, daily oral 5 mg/kg, Day 14, Male, 4 h) of 512 ng/mL. For the same compound, the concentration at 12 h (5 mg/kg, Individual Compound 1 Plasma Concentration, daily oral 5 mg/kg, Day 14, Male, 12 h) was 169 ng/mL, the concentration at 24 h (5 mg/kg, Individual Compound 1 Plasma Concentration, daily oral 5 mg/kg, Day 14, Male, 24 h) was 11.1 ng/mL and the concentration at […] (5 mg/kg, Individual Compound 1 Plasma Concentration, daily oral 5 mg/kg, Day 14, Male, […]) was 26 ng/mL. The concentration at 0.5 h (5 mg/kg, Mean Compound 1 Plasma Concentration, oral 5 mg/kg, Day 1, 0.5 h, Male) was 237 ng/mL, the concentration at 1 h (5 mg/kg, Mean Compound 1 Plasma Concentration, oral 5 mg/kg, Day 1, 1 h, Male) was 194 ng/mL and the concentration at 2 h (5 mg/kg, Mean Compound 1 Plasma Concentration, oral 5 mg/kg, Day 1, 2 h, Male) was 254 ng/mL. The concentration at 4 h (5 mg/kg, Mean Compound 1 Plasma Concentration, oral 5 mg/kg, Day 1, 4 h, Male) was 408 ng/mL, the concentration at 8 h (5 mg/kg, Mean Compound 1 Plasma Concentration, oral 5 mg/kg, Day 1, 8 h, Male) was 276 ng/mL and the concentration at 12 h (5 mg/kg, Mean Compound 1 Plasma Concentration, oral 5 mg/kg, Day 1, 12 h, Male) was 195 ng/mL. It also gave a concentration at 24 h (5 mg/kg, Mean Compound 1 Plasma Concentration, oral 5 mg/kg, Day 1, 24 h, Male) of 25.6 ng/mL, a concentration at […] (5 mg/kg, Mean Compound 1 Plasma Concentration, oral 5 mg/kg, Day 1, […], Male) of 16 ng/mL and a concentration at 0.5 h (5 mg/kg, Mean Compound 1 Plasma Concentration, oral 5 mg/kg, Day 14, 0.5 h, Male) of 298 ng/mL. It also gave a concentration at 1 h (5 mg/kg, Mean Compound 1 Plasma Concentration, oral 5 mg/kg, Day 14, 1 h, Male) of 258 ng/mL, a concentration at 2 h (5 mg/kg, Mean Compound 1 Plasma Concentration, oral 5 mg/kg, Day 14, 2 h, Male) of 436 ng/mL and a concentration at 4 h (5 mg/kg, Mean Compound 1 Plasma Concentration, oral 5 mg/kg, Day 14, 4 h, Male) of 421 ng/mL. It also gave a concentration at 8 h (5 mg/kg, Mean Compound 1 Plasma Concentration, oral 5 mg/kg, Day 14, 8 h, Male) of 273 ng/mL, a concentration at 12 h (5 mg/kg, Mean Compound 1 Plasma Concentration, oral 5 mg/kg, Day 14, 12 h, Male) of 198 ng/mL and a concentration at 24 h (5 mg/kg, Mean Compound 1 Plasma Concentration, oral 5 mg/kg, Day 14, 24 h, Male) of 16.2 ng/mL. For the same compound, the concentration at […] (5 mg/kg, Mean Compound 1 Plasma Concentration, oral 5 mg/kg, Day 14, […], Male) was 27.2 ng/mL, the AUC(0-inf) [1] was 4850 ng·h/mL and the AUC(0-t) [1] was 4680 ng·h/mL. For the same compound, the Cmax [1] was 408 ng/mL, the Tmax [1] was 4 h and the half-life [1] was 4.52 h. For the same compound, the AUC(0-inf) [2] was 5120 ng·h/mL, the AUC(0-t) [2] was 5030 ng·h/mL and the Cmax [2] was 436 ng/mL. For the same compound, the Tmax [2] was 2 h, the half-life [2] was 3.77 h and the concentration at 1 h (15 mg/kg, Individual Compound 1 Plasma Concentration, daily oral 15 mg/kg, Day 1, Male, 1 h) was 614 ng/mL. It also gave a concentration at 2 h (15 mg/kg, Individual Compound 1 Plasma Concentration, daily oral 15 mg/kg, Day 1, Male, 2 h) of 759 ng/mL, a concentration at 4 h (15 mg/kg, Individual Compound 1 Plasma Concentration, daily oral 15 mg/kg, Day 1, Male, 4 h) of 1160 ng/mL and a concentration at 8 h (15 mg/kg, Individual Compound 1 Plasma Concentration, daily oral 15 mg/kg, Day 1, Male, 8 h) of 696 ng/mL. For the same compound, the concentration at 12 h (15 mg/kg, Individual Compound 1 Plasma Concentration, daily oral 15 mg/kg, Day 1, Male, 12 h) was 451 ng/mL, the concentration at […] (15 mg/kg, Individual Compound 1 Plasma Concentration, daily oral 15 mg/kg, Day 1, Male, […]) was 49.7 ng/mL and the concentration at 0.5 h (15 mg/kg, Individual Compound 1 Plasma Concentration, daily oral 15 mg/kg, Day 14, Male, 0.5 h) was 741 ng/mL. For the same compound, the concentration at 1 h (15 mg/kg, Individual Compound 1 Plasma Concentration, daily oral 15 mg/kg, Day 14, Male, 1 h) was 1020 ng/mL, the concentration at 2 h (15 mg/kg, Individual Compound 1 Plasma Concentration, daily oral 15 mg/kg, Day 14, Male, 2 h) was 1350 ng/mL and the concentration at 4 h (15 mg/kg, Individual Compound 1 Plasma Concentration, daily oral 15 mg/kg, Day 14, Male, 4 h) was 1160 ng/mL. The concentration at 8 h (15 mg/kg, Individual Compound 1 Plasma Concentration, daily oral 15 mg/kg, Day 14, Male, 8 h) was 1190 ng/mL, the concentration at 12 h (15 mg/kg, Individual Compound 1 Plasma Concentration, daily oral 15 mg/kg, Day 14, Male, 12 h) was 583 ng/mL and the concentration at 24 h (15 mg/kg, Individual Compound 1 Plasma Concentration, daily oral 15 mg/kg, Day 14, Male, 24 h) was 61.4 ng/mL. It also gave a concentration at […] (15 mg/kg, Individual Compound 1 Plasma Concentration, daily oral 15 mg/kg, Day 14, Male, […]) of 89.9 ng/mL, a concentration at 0.5 h (15 mg/kg, Mean Compound 1 Plasma Concentration, oral 15 mg/kg, Day 1, 0.5 h, Male) of 620 ng/mL and a concentration at 1 h (15 mg/kg, Mean Compound 1 Plasma Concentration, oral 15 mg/kg, Day 1, 1 h, Male) of 810 ng/mL. The concentration at 2 h (15 mg/kg, Mean Compound 1 Plasma Concentration, oral 15 mg/kg, Day 1, 2 h, Male) was 1060 ng/mL.
